The target of assay [1] is T1, Adenosine kinase (Rattus norvegicus, UniProt Q64640). As to the kind of experiment: Inhibitory activity against cytosolic adenosine kinase by ADO phosphorylation assay.
Assay [2] addresses T1, Adenosine kinase. As to the kind of experiment: Inhibitory activity against intact cell adenosine kinase by ADO phosphorylation assay.
The subject of assay [3] is Rattus norvegicus. As to the kind of experiment: Tested for analgesic activity in vivo rat carrageenan hyperalgesia assay, administered by intraperitoneal injection to six animals at each dose. p<0.05. Type of assay: functional. The settings on record: ip.
Assay [4] relates to Rattus norvegicus. As to the kind of experiment: Tested for analgesic activity in vivo rat formalin nociception assay, administered by intraperitoneal injection to six animals at each dose. p<0.05. Type of assay: functional. The following applies: ip.

T1 sequence (Q64640 whole entry): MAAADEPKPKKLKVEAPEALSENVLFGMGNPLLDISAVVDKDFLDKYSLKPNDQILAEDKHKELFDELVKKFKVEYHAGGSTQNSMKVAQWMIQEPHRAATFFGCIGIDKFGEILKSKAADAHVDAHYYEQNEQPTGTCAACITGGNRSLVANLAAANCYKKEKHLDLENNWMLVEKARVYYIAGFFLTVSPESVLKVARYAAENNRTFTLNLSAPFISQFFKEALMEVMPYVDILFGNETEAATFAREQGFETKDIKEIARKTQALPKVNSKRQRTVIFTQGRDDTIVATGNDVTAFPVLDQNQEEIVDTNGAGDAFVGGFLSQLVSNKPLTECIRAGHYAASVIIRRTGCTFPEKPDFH

Take `CN(C)c1ccc(-c2cc(-c3cccc(I)c3)c3c(N)ncnc3n2)cc1`: the figures for the IC50 against Adenosine kinase [1] and against Adenosine kinase [2] were 17 nM and 120 nM, respectively.
On to `Nc1ncnc2nc(-c3ccc(N4CCOCC4)nc3)cc(-c3ccccc3Br)c12`, for which the IC50 against Adenosine kinase [1] came to 3 nM; on Adenosine kinase [2] it was 675 nM. For the same compound, the 50% effective dose (ED50) in the assay with Rattus norvegicus [3] came out at 30 µmol/kg; in the assay on Rattus norvegicus [4], 10 µmol/kg.
Regarding `CN(C)c1ccc(-c2cc(-c3cccc(Br)c3)c3c(N)ncnc3n2)cc1`, the IC50 at Adenosine kinase [1] was found to be 5 nM; against Adenosine kinase [2], 170 nM. Also, the results for the 50% effective dose (ED50) in the assay on Rattus norvegicus [3] and in the assay with Rattus norvegicus [4] were 30 µmol/kg and 0.7 µmol/kg, respectively.
On to `Nc1ncnc2nc(-c3ccc(N4CCOCC4)nc3)cc(-c3ccco3)c12`, for which the figures for the IC50 at Adenosine kinase [1] and on Adenosine kinase [2] were 10 nM and 488 nM, respectively.
Turning to `Cc1cc(-c2ccc(N(C)C)cc2)nc2ncnc(N)c12`, the IC50 against Adenosine kinase [1] is 47 nM; against Adenosine kinase [2] it was > 1000 nM.
The corresponding values for `CN(C)c1ccc(-c2cc(-c3ccccc3)c3c(N)ncnc3n2)cc1` are 7 nM and 470 nM.
Consider `CN(C)c1ccc(-c2cnc3c(N)ncnc3n2)cc1`, for which half-maximal inhibition against Adenosine kinase [1] (IC50) was put at 400 nM.
For `C=CC(C)(C)c1cc(-c2ccc(N3CCOCC3)nc2)nc2ncnc(N)c12`, the IC50 on Adenosine kinase [1] was found to be 21 nM; on Adenosine kinase [2] it was 304 nM.
With `CN(C)c1ccc(-c2cc(-c3cccc(C(F)(F)F)c3)c3c(N)ncnc3n2)cc1`, the IC50 against Adenosine kinase [1] was found to be 36 nM; at Adenosine kinase [2] it was 225 nM.
The matching figures for `CN(C)c1ccc(-c2ccc3c(N)ncnc3n2)cc1`: 733 nM and > 10000 nM.
The corresponding values for `CN(C)c1ccc(-c2cc(-c3cccc(C(N)=O)c3)c3c(N)ncnc3n2)cc1` are 77 nM and 850 nM.
In the case of `Nc1ncnc2nc(-c3ccc(N4CCOCC4)nc3)cc(-c3ccc(Br)cc3)c12`, the results for the 50% inhibitory concentration (IC50) against Adenosine kinase [1] and against Adenosine kinase [2] were 30 nM and 430 nM, respectively. The same compound came in with a 50% effective dose (ED50) in the assay with Rattus norvegicus [4] of 30 µmol/kg.
As to `CC(c1ccccc1Br)c1cc(-c2ccc(N3CCOCC3)nc2)nc2ncnc(N)c12` (stereo not drawn), the results for the IC50 at Adenosine kinase [1] and against Adenosine kinase [2] were 0.25 nM and 30 nM, respectively. Moreover, the median effective dose (ED50) with Rattus norvegicus [3] and in the assay with Rattus norvegicus [4] was 10 µmol/kg each time.
For `Nc1ncnc2nc(-c3ccc(N4CCOCC4)nc3)cc(-c3cccc(Cl)c3)c12`, the values for the IC50 against Adenosine kinase [1] and at Adenosine kinase [2] were 9 nM and 96 nM, respectively. The median effective dose (ED50) in the assay with Rattus norvegicus [3] was 20 µmol/kg; in the assay on Rattus norvegicus [4], 10 µmol/kg.
For `CN(C)c1ccc(-c2cc(-c3cccc(Cl)c3)c3c(N)ncnc3n2)cc1`, the IC50 on Adenosine kinase [1] turned out to be 15 nM; against Adenosine kinase [2], 78 nM.
`COc1cccc(-c2cc(-c3ccc(N(C)C)cc3)nc3ncnc(N)c23)c1`: the half-maximal inhibitory concentration (IC50) against Adenosine kinase [1] was determined as 85 nM; on Adenosine kinase [2] it was 400 nM.
Take `Nc1ncnc2nc(-c3ccc(N4CCOCC4)nc3)cc(C3CCCC3)c12`: the concentration for half-maximal inhibition (IC50) amounted to 2 nM against Adenosine kinase [1] and 80 nM against Adenosine kinase [2]. Also, the median effective dose (ED50) with Rattus norvegicus [3] was found to be 10 µmol/kg.
With `Nc1ncnc2nc(-c3ccc(N4CCOCC4)nc3)cc(C3CCCCC3)c12`, the figures for the IC50 on Adenosine kinase [1] and against Adenosine kinase [2] were 3 nM and 57 nM, respectively. Further, the median effective dose (ED50) stood at 10 µmol/kg in the assay on Rattus norvegicus [3] and 20 µmol/kg in the assay with Rattus norvegicus [4].
`Nc1ncnc2nc(-c3ccc(N4CCOCC4)nc3)cc(-c3cccc(Cl)c3Cl)c12`: the IC50 was 5 nM against Adenosine kinase [1] and 130 nM against Adenosine kinase [2]. This compound also showed an ED50 in the assay on Rattus norvegicus [3] of 5 µmol/kg.
With `CN(C)c1ccc(-c2cc(-c3cccc(C#N)c3)c3c(N)ncnc3n2)cc1`, the half-maximal inhibitory concentration (IC50) on Adenosine kinase [1] amounted to 35 nM; on Adenosine kinase [2], 325 nM.
The corresponding values for `CN(C)c1ccc(-c2cc(C3CCCCC3)c3c(N)ncnc3n2)cc1` are 8 nM and 470 nM.
The matching figures for `Nc1ncnc2nc(-c3ccc(N4CCOCC4)nc3)cc(-c3ccsc3)c12`: 13 nM and 550 nM.
The corresponding values for `Nc1ncnc2nc(-c3ccc(N4CCOCC4)nc3)cc(-c3cc(Cl)ccc3Cl)c12` are 38 nM and 378 nM.
For the compound `CCC(CC)c1cc(-c2ccc(N3CCOCC3)nc2)nc2ncnc(N)c12`, the half-maximal inhibitory concentration (IC50) at Adenosine kinase [1] stood at 9 nM; at Adenosine kinase [2] it was 115 nM. In the assay with Rattus norvegicus [3], this compound came in with an ED50 of 30 µmol/kg.
The matching figures for `Nc1ncnc2nc(-c3ccc(N4CCOCC4)nc3)cc(-c3cccnc3)c12`: 62 nM, 315 nM and > 30 µmol/kg.
For `CC1CC(C)CC(c2cc(-c3ccc(N4CCOCC4)nc3)nc3ncnc(N)c23)C1` (stereo not drawn), the IC50 against Adenosine kinase [1] was determined as 0.23 nM; on Adenosine kinase [2] it was 102 nM. In addition, the figures for the ED50 in the assay on Rattus norvegicus [3] and in the assay with Rattus norvegicus [4] were 30 µmol/kg and > 30 µmol/kg, respectively.
The matching figures for `Nc1ncnc2nc(-c3ccc(N4CCOCC4)nc3)cc(Cc3ccccc3Br)c12`: 0.17 nM, 33 nM, 3 µmol/kg and 30 µmol/kg.
The corresponding values for `Nc1ncnc2nc(-c3ccc(N4CCOCC4)nc3)cc(C3CCOCC3)c12` are 17 nM, 800 nM, > 2 µmol/kg and 30 µmol/kg.
Consider `CN(C)c1ccc(-c2cc(-c3cccc(O)c3)c3c(N)ncnc3n2)cc1`, for which the IC50 on Adenosine kinase [1] was 44 nM; against Adenosine kinase [2] it was 353 nM.
On to `CN(C)c1ccc(-c2cc(C3CC3)c3c(N)ncnc3n2)cc1`, for which the IC50 amounted to 55 nM at Adenosine kinase [1] and 825 nM at Adenosine kinase [2].
As to `Nc1ncnc2nc(-c3ccc(N4CCOCC4)nc3)cc(-c3cccc(Br)c3)c12`, the IC50 was 2 nM on Adenosine kinase [1] and 50 nM on Adenosine kinase [2]. For the same compound, the 50% effective dose (ED50) was 0.6 µmol/kg in the assay on Rattus norvegicus [3] and 25 µmol/kg with Rattus norvegicus [4].
For `CCCCc1cc(-c2ccc(N(C)C)cc2)nc2ncnc(N)c12`, the IC50 came out at 11 nM on Adenosine kinase [1] and 550 nM against Adenosine kinase [2].
Regarding `Nc1ncnc2nc(-c3ccc(N4CCOCC4)nc3)ccc12`, the half-inhibitory concentration (IC50) is 562 nM against Adenosine kinase [1] and > 1000 nM against Adenosine kinase [2].
